Test results from patent US8828401B2, “Cytotoxic peptides and antibody drug conjugates thereof” (Pfizer Inc., priority 2011, dated 2014).

How the values were obtained:
37622A1 NSCLC xenografts = test: 37622A1 NSCLC patient-derived xenografts with anti-Notch ADCs; format: in vivo, nude (Nu/Nu) female mice; conditions: 5 mg/kg Q4dx4
Protocol: (§1) Humanized anti-Notch antibodies, hu28 and hu75, and rat-human chimeric anti-Notch antibodies, ch28 and ch75, were conjugated to various linker-payload combinations and tested in 37622A1 non-small cell lung cancer (NSCLC), HCC2429 lung cancer, MDA-MB-468 breast cancer and N87 gastric cancer xenograft models. For each model described below the first dose was given on Day 0. The tumors were measured at least once a week and their volume was calculated with the formula: tumor volume (mm^3)=0.5×(tumor width^2)(tumor length). The mean tumor volumes (±S.E.M.) for each treatment group were calculated having a maximum of 10 animals and a minimum of 6 animals to be included.
The effects of anti-Notch ADCs were examined in immunodeficient mice on the in vivo growth of human tumor xenografts that were established from fragments of freshly resected 37622A1 NSCLC tumors obtained in accordance with appropriate consent procedures (Asterand). The 37622A1 NSCLC patient-derived xenografts were subcutaneously passaged in vivo as fragments from animal to animal in nude (Nu/Nu) female mice. When the tumors reached a volume of 150 to 300 mm^3, they were staged to ensure uniformity of the tumor size among various treatment groups. The 37622A1 NSCLC model was dosed intraveneously four times every four days (Q4dx4) with PBS vehicle, humanized anti-Notch ADCs, control huNeg-8.8 ADCs and cisplatin at the doses provided in Table 11.

N87 gastric xenografts = N87 gastric xenografts with anti-Notch ADCs; format: in vivo, nude (Nu/Nu) female mice; conditions: Dose 5 mg/kg Q4dx4 iv
Protocol: as §1
Similar in vivo experiments were performed with the N87 gastric cancer cell line as described above. […] When the tumors reached a volume of 250 to 450 mm^3, the tumors were staged to ensure uniformity of the tumor mass among various treatment groups. The N87 gastric model was dosed intraveneously Q4dx4 with PBS vehicle, humanized anti-Notch ADCs, control huNeg-8.8 ADCs and cisplatin at the doses provided in Tables 16 and 17.

[1] = test system: MDA-MB-468 (breast cancer); test: In vitro cytotoxicity assay with anti-Notch ADCs (MTS); format: cell-based; conditions: average of 2-4 repeats where ± S.E.M. is given
Protocol: (§2) The effects of anti-Notch ADCs were assessed on 1) cell lines endogenously expressing Notch protein: HCC2429 (lung cancer), OVCAR3 (ovarian cancer) and MDA-MB-468 (breast cancer), 2) cell lines engineered to over-express Notch protein: MDA-MB-468/hNotch and U2OS/hNotch, and 3) a negative control cell line (SW900) using an MTS cellular viability indicator (Promega, Madison, Wis.). These cell lines were cultured with increasing concentrations of anti-Notch ADCs comprising humanized anti-Notch antibodies, hu28 and hu75, and rat-human chimeric anti-Notch antibodies, ch28 and ch75, conjugated to various linker-payload combinations of the present invention. As a specificity control for the anti-Notch-ADCs, non-targeted control-ADCs (huNeg8.8-ADCs or ch2H6-ADCs) were also tested on the same cell lines. After four days, viability of each culture was assessed. IC50 values were calculated by logistic non-linear regression and presented as ng Ab/mL. The drug antibody ratio (DAR) is also provided.

MDA-MB-468/hNotch = test: as above; format: cell-based; conditions: average of 2-4 repeats where ± S.E.M. is given
Protocol: as §2

HCC2429 (lung cancer) = test: as above; format: cell-based; conditions: average of 2-4 repeats where ± S.E.M. is given
Protocol: as §2

OVCAR3 (ovarian cancer) = test: as above; format: cell-based; conditions: average of 2-4 repeats where ± S.E.M. is given
Protocol: as §2

U2OS/hNotch = test: as above; format: cell-based; conditions: average of 2-4 repeats where ± S.E.M. is given
Protocol: as §2

`N.N.[Cl][Pt][Cl]` [Cisplatin, reference compound] was tested, and the “tumor volume (mm^3 ± SEM)” value (37622A1 NSCLC xenografts; DAY 4) was 226 ± 15 mm^3, the “tumor volume (mm^3 ± SEM)” value (37622A1 NSCLC xenografts; DAY 7) was 280 ± 29 mm^3 and the “tumor volume (mm^3 ± SEM)” value (37622A1 NSCLC xenografts; DAY 11) was 301 ± 34 mm^3. For the same molecule, the “tumor volume (mm^3 ± SEM)” value (37622A1 NSCLC xenografts; DAY 14) was 345 ± 47 mm^3, the “tumor volume (mm^3 ± SEM)” value (37622A1 NSCLC xenografts; DAY 18) was 309 ± 37 mm^3 and the “tumor volume (mm^3 ± SEM)” value (37622A1 NSCLC xenografts; DAY 21) was 373 ± 50 mm^3. For the same molecule, the “tumor volume (mm^3 ± SEM)” value (37622A1 NSCLC xenografts; DAY 25) was 401 ± 58 mm^3, the “tumor volume (mm^3 ± SEM)” value (37622A1 NSCLC xenografts; DAY 28) was 446 ± 64 mm^3 and the “tumor volume (mm^3 ± SEM)” value (37622A1 NSCLC xenografts; DAY 32) was 482 ± 62 mm^3. The “tumor volume (mm^3 ± SEM)” value (37622A1 NSCLC xenografts; DAY 35) was 587 ± 80 mm^3, the “tumor volume (mm^3 ± SEM)” value (37622A1 NSCLC xenografts; DAY 39) was 591 ± 83 mm^3 and the “tumor volume (mm^3 ± SEM)” value (37622A1 NSCLC xenografts; DAY 42) was 612 ± 92 mm^3. The “tumor volume (mm^3 ± SEM)” value (37622A1 NSCLC xenografts; DAY 46) was 723 ± 119 mm^3, the “tumor volume (mm^3 ± SEM)” value (37622A1 NSCLC xenografts; DAY 49) was 853 ± 139 mm^3 and the “tumor volume (mm^3 ± SEM)” value (37622A1 NSCLC xenografts; DAY 53) was 970 ± 193 mm^3. For the same molecule, the “tumor volume (mm^3 ± SEM)” value (37622A1 NSCLC xenografts; DAY 56) was 1215 ± 231 mm^3, the “tumor volume (mm^3 ± SEM)” value (37622A1 NSCLC xenografts; DAY 60) was 1428 ± 273 mm^3 and the “tumor volume (mm^3 ± SEM)” value (37622A1 NSCLC xenografts; DAY −1) was 185 ± 11 mm^3. The “tumor volume (mm^3 ± SEM)” value (N87 gastric xenografts; DAY 0) was 328 ± 20 mm^3, the “tumor volume (mm^3 ± SEM)” value (N87 gastric xenografts; DAY 4) was 414 ± 27 mm^3 and the “tumor volume (mm^3 ± SEM)” value (N87 gastric xenografts; DAY 7) was 520 ± 26 mm^3. For the same molecule, the “tumor volume (mm^3 ± SEM)” value (N87 gastric xenografts; DAY 11) was 501 ± 29 mm^3 and the “tumor volume (mm^3 ± SEM)” value (N87 gastric xenografts; DAY 14) was 637 ± 31 mm^3.

B1: ch75-vc0101: rat-human chimeric anti-Notch antibody ch75 conjugated to mcValCitPABC-#54 (conjugate)
VH: QVKLLQSGAALVKPGASVKMSCKASGYAFTDYWVTWVKQSHGKSLEWIGEISPNSGGTNFNEKFKGKATLTVDKSTSTAYMELSRLTSEDSAIYYCTRGEIRYNWFAYWGQGTLVTVSS
VL: DIQMTQSPSSLSASVGDRVTITCKASQNVGNNIAWYQQKPGKAPKLLIYYASNRYTGVPSRFSGSGYGTDFTLTISSLQPEDFATYYCQRLYNSPFTFGGGTKVEIK
B1 was tested, and the “IC50 (ng Ab/mL) ± S.E.M.” value [1] was 4064 ± 1793.9 ng Ab/mL, the “IC50 (ng Ab/mL) ± S.E.M.” value (MDA-MB-468/hNotch) was 24 ± 4.0 ng Ab/mL and the “IC50 (ng Ab/mL) ± S.E.M.” value (HCC2429 (lung cancer)) was 2112 ± 826.0 ng Ab/mL.

B2: ch75-vc6780 (conjugate)
VH: B1 VH
VL: B1 VL
B2 was tested, and the “IC50 (ng Ab/mL) ± S.E.M.” value [1] was 6873 ± 4230.0 ng Ab/mL, the “IC50 (ng Ab/mL) ± S.E.M.” value (MDA-MB-468/hNotch) was 21 ± 3.5 ng Ab/mL and the “IC50 (ng Ab/mL) ± S.E.M.” value (OVCAR3 (ovarian cancer)) was 922 ng Ab/mL. The “IC50 (ng Ab/mL) ± S.E.M.” value (HCC2429 (lung cancer)) was 1004 ± 177.0 ng Ab/mL.

B3: ch28-vc0101: rat-human chimeric anti-Notch antibody ch28 conjugated to mcValCitPABC-#54 (conjugate)
VH: EVQLVESGGGLVQPGRSLTLSCVASGFTFRDYGMTWIRQAPGKGLTWVAYISSGSNYIYYAEAVKGRFTISRDNAKNTLYLQMTSLRSEDTALYFCTRRGPFVLDAWGQGASVTVSS
VL: DIQMTQSPSFLSASVGDRVTINCKASQSINRYLHWFQQKLGEAPKLLIYNANGLQTGIPSRFSGSGSGTDFTLTISSLQSEDVATYFCLQHNTWPDTFGAGTKLELK
For B3, the “IC50 (ng Ab/mL) ± S.E.M.” value [1] was 5443 ± 2630.9 ng Ab/mL, the “IC50 (ng Ab/mL) ± S.E.M.” value (MDA-MB-468/hNotch) was 4 ± 0.5 ng Ab/mL and the “IC50 (ng Ab/mL) ± S.E.M.” value (OVCAR3 (ovarian cancer)) was 635 ng Ab/mL. The “IC50 (ng Ab/mL) ± S.E.M.” value (HCC2429 (lung cancer)) was 3230 ± 1116.5 ng Ab/mL and the “IC50 (ng Ab/mL) ± S.E.M.” value (U2OS/hNotch) was 95 ± 18.2 ng Ab/mL.

B4: ch28-vc6780 (conjugate)
VH: B3 VH
VL: B3 VL
In the case of B4, the “IC50 (ng Ab/mL) ± S.E.M.” value [1] is reported as 4407 ± 2128.2 ng Ab/mL, the “IC50 (ng Ab/mL) ± S.E.M.” value (MDA-MB-468/hNotch) is reported as 3 ± 0.5 ng Ab/mL and the “IC50 (ng Ab/mL) ± S.E.M.” value (OVCAR3 (ovarian cancer)) is reported as 90 ± 48.5 ng Ab/mL. The “IC50 (ng Ab/mL) ± S.E.M.” value (HCC2429 (lung cancer)) was 324 ± 78.9 ng Ab/mL.
